# Literature values as cited in patent US10471156B2, “Pharmaceutical composition comprising amorphous lenalidomide” (SYNTHON B.V., priority 2014, dated 2019).
aqueous solubility (water),solubility in water,Compound
exceeding 600 mg/ml,,2-hydroxypropyl-β-cyclodextrin
,slightly soluble,"Nc1cccc2c1CN(C1CCC(=O)NC1=O)C2=O (racemic) [Lenalidomide, (RS)-3-(4-Amino-1-oxo 1,3-dihydro-2H-isoindol-2-yl)piperidine-2,6-dione]"
